From publication PMC11313180 (International Journal of Molecular Sciences, 2024)
Read-outs that look alike come from different tables or passages of the source.

Assays:
[1] = tested on: MDA-MB-231; experiment: MTT cell viability assay, MDA-MB-231; type: cell-based, human
Experimental: MTT assays were performed as previously described. Cell numbers plated differed depending on each incubation time: MDA-MB-231 5000 c/w, MCF-7 5000 c/w (72 h) and 3000 c/w (120 h), T-47D 10,000 c/w (72 h) and 5000 c/w /120 h). After incubation time, medium was replaced by MTT (solution of 5 mg/mL 3-(4,5-dimethylthiazol-2-yl)-2,5-diphenyl-tetrazoliumbromidin in phosphate buffered saline, Serva, Heidelberg, Germany). After 10 min (MCF-7), 20 min (MDA-MB-231), and 30 min (T47D) and dissolving in DMSO (VWR, Langenfeld, Germany), absorbance was measured at 544 nm and 690 nm in a FLUOstar microplate reader (BMG LabTech, Offenburg, Germany).

[2] = tested on: caspase 3/7 in MCF-7 cells; experiment: Caspase 3/7 activation assay, MCF-7; type: cell-based, human; conditions: 24 h; 1 µM exemestane, 0.5 mM or 1 mM (R)-α-lipoic acid
Experimental: (§1) To analyze the compound-induced activation of capases 3 and 7, the CellEvent caspase 3/7 green detection reagent (Thermo Scientific, Wesel, Germany) was used according to the manufacturer’s instructions. […] After 24 h incubation, medium was removed, and cells were stained with 50 µL of CellEvent caspase 3/7 green detection reagent (2 µM in PBS supplemented with 5% heat-inactivated FBS). Cells were incubated for 30 min at 37 °C in a humidified incubator before imaging by using the Thermo Fisher ArrayScan XTI high content screening (HCS) system with a 10× magnification (Thermo Scientific). Hoechst 33342 was added for nuclei staining.

[3] = tested on: caspase 3/7 in T47D cells; experiment: Caspase 3/7 activation assay, T47D; type: cell-based, human; conditions: 24 h; 1 µM exemestane, 0.5 mM or 1 mM (R)-α-lipoic acid
Experimental: as §1

[4] = tested on: HDAC; conditions: up to 500 µM (max. concentration tested); ref [21]; cited from earlier work
[5] = tested on: MCF-7; experiment: Long-term (10 days) live/dead proliferation assay, calcein AM and Hoechst 33342, MCF-7; type: cell-based, human; conditions: 1 µM exemestane, 1 mM (R)-α-lipoic acid
Experimental: (§2) Cells were seeded on day one in 96-well plates. […] Then, cells were stained with calcein AM (Millipore Corporation, Billerica, MA, USA) and Hoechst 33342 (Tocris Bioscience, Bristol, UK) for 30 min and fluorescence images monitored by Leica DMi8 Thunder Imager (Leica Microsystems CMS GmbH, Wetzlar, Germany). Five images per well were monitored randomly. Calcein AM- and Hoechst 33342-stained area of the images (i.e., live proliferating cells) were evaluated.

[6] = tested on: T47D; experiment: Long-term (10 days) live/dead proliferation assay, calcein AM and Hoechst 33342, T47D; type: cell-based, human; conditions: 1 µM exemestane, 1 mM (R)-α-lipoic acid
Experimental: as §2

[7] = tested on: MCF-7; experiment: Immunoblotting, MCF-7; type: cell-based, human; conditions: 48 h
Experimental: (§3) A quantity of 20 or 40 µg of total protein as well as, from PageRuler Prestained Protein Ladder, 10–180 kDA (Thermo Scientific, Wesel, Germany), were resolved by SDS-Page (12% polyacrylamide gel) and transferred to polyvinylidene fluoride membrane (Millipore Corporation, Billerica, MA, USA). Blots were incubated with primary antibodies against acetylated a -tubulin (Cat. No. sc-23950), a -tubulin (Cat. No. sc-8035) (Santa Cruz Biotechnology, Heidelberg, Germany), acetyl histone h3 (Cat. No. 39140) and histone H3 (Cat. No. NB100-1669), ß-actine (Cat. No. sc-47778), p21 (AF1047), c-myk (Cat. No. MAB3696), APAF1 (Cat. No. MAB868), BIM (Cat. No. NBP1-76936), FOXO1 (Cat. No. C29H4), BCL-2 (Cat. No. AF810), and survivin (Cat. No. AF886). After another one-hour incubation with the appropriate HRP-conjugated secondary antibody, proteins were visualized by Intas Imager (Intas, Göttingen, Germany) using luminol reagent (Santa Cruz Biotechnology, Heidelberg, Germany).

[8] = tested on: T47D; experiment: Immunoblotting, T47D; type: cell-based, human; conditions: 48 h
Experimental: as §3

[9] = tested on: MCF-7; experiment: Mitochondrial potential assay (TMRE), MCF-7; type: cell-based, human; conditions: 1 mM; 2 h, 6 h, 24 h, 48 h
Experimental: The analysis of mitochondrial potential was carried out as previously described with minor modifications concerning fluorescence measurement. […] After an incubation time of 2 h, 6 h, 24 h, and 48 h, medium was removed, and cells were washed with PBS and then stained for 30 min at 37 °C with 50 µL staining reagent containing 500 nM tetramethyl rhodamine ethylester as perchlorate (TMRE, BIOTREND chemicals GmbH, Cologne) and Hoechst 33342 (5 µg/mL). A quantity of 20 µM CCCP (carbonyl cyanide-m-chlorophenylhydrazone, Sigma-Aldrich, München, Germany) served as control for mitochondrial potential breakdown. Fluorescence was measured by Leica DMi8 Thunder Imager (Leica Microsystems CMS GmbH, Wetzlar, Germany).

[10] = 120 h, IC50 ± SEM, read-out: IC50 MDA-MB-231, 120 h MTT assay
[11] = 1 mM (R)-α-lipoic acid, 1 µM exemestane

Compound | IC50 [1, 10] | caspase 3/7 activation, MCF-7 [2] | caspase 3/7 activation, T47D [3] | HDAC inhibitory activity [4] | IC50 ([1]; 72 h MTT, slightly below, read-out: IC50 MDA-MB-231) | increase in potency by prolongation of incubation time, MDA-MB-231 ([1]; 120 h versus 72 h MTT) | IC50 ([1]; read-out: IC50 MDA-MB-231, 72 h MTT assay, 72 h, IC50 ± SEM) | proliferation and doubling time over 10 days, MCF-7 [5] | proliferation and doubling time over 10 days, T47D [6] | expression of APAF-1 and BIM, MCF-7 [7] | expression of FOXO1, MCF-7 [7] | acetylation of histone H3 and alpha-tubulin (western blot), MCF-7 [7, 11] | expression of p21, MCF-7 [7, 11] | expression of survivin and c-myk, MCF-7 [7, 11] | expression of APAF-1 and BIM, T47D [8] | expression of FOXO1, T47D [8] | acetylation of histone H3 and alpha-tubulin (western blot), T47D [8, 11] | expression of p21, T47D [8, 11] | expression of survivin and c-myk, T47D [8, 11] | mitochondrial potential and structure (TMRE) [9]
O=C(O)CCCC[C@H]1CCSS1 [(S)-α-lipoic acid] | 243 ± 25.1 µM | slightly lower than (R)-α-lipoic acid | slightly lower than (R)-α-lipoic acid | no HDAC inhibitory activity | – | – | – | – | – | – | – | – | – | – | – | – | – | – | – | –
O=C(O)CCCC[C@@H]1CCSS1 [(R)-α-lipoic acid] | 225 ± 7.33 µM | – | – | – | ~1000 µM | 3.9 fold | 873 ± 36 µM | strong reduction in proliferation and thus increase in doubling time | reduced proliferation and increased doubling time strongly | upregulated | strongly upregulated | increased acetylation of histone and of alpha-tubulin | moderately upregulated | strongly downregulated | upregulated | strongly upregulated | increased acetylation of histone and of alpha-tubulin | moderately upregulated | strongly downregulated | mitochondrial fusion up to 24 h followed by mitochondrial fission and inhibition of proliferation
